Where two headings read alike, the source gives them in different places.
What was measured:
[1] = tested on: Key Broadleaf Weed and Crop Species; assay: Post-Emergent Test II (Table 5); assay type: in vivo; details: post-emergence, 336 h; for pest or weed control at 70 g/ha: application rate 70 (kg ai/ha; footnote: g ai/ha); for pest or weed control at 140 g/ha: application rate 140 (kg ai/ha; footnote: g ai/ha)
Summary of the method: (§1)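 Post-emergence greenhouse spray, 1st-2nd true leaf stage; track sprayer, 187 L/ha; acetone/DMSO stock diluted in aqueous acetone/IPA/DMSO with Atplus 411F and Triton X-155; rates 1× to 1/16×; subirrigated; visual injury 0 (none) to 100% (complete kill) at 14 days.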

[2] = tested on: Key Grass and Sedge Weeds as well as Grass Crops; assay: Post-Emergent Test II (Table 6); assay type: in vivo; details: post-emergence, 336 h, 14 days after application; for pest or weed control at 70 g/ha: 70 g ai/ha; for pest or weed control at 140 g/ha: 140 g ai/ha
Summary of the method: as §1

[3] = Abutilon theophrasti, ABUTH: velvetleaf (Abutilon theophrasti), read-out: Visual Growth Reduction (%) 14 Days After Application ABUTH
[4] = Amaranthus retroflexus, AMARE: redroot pigweed (Amaranthus retroflexus), read-out: Visual Growth Reduction (%) 14 Days After Application AMARE
[5] = Brassica napus, BRSSS: oilseed rape, canola (Brassica napus), read-out: Visual Growth Reduction (%) 14 Days After Application BRSSS
[6] = Chenopodium album, CHEAL: lambsquarters (Chenopodium album), read-out: Visual Growth Reduction (%) 14 Days After Application CHEAL
[7] = Euphorbia heterophylla, EPHHL: wild poinsettia (Euphorbia heterophylla), read-out: Visual Growth Reduction (%) 14 Days After Application EPHHL
[8] = Helianthus annuus, HELAN: sunflower (Helianthus annuus), read-out: Visual Growth Reduction (%) 14 Days After Application HELAN
[9] = Viola tricolor, VIOTR: wild pansy (Viola tricolor), read-out: Visual Growth Reduction (%) 14 Days After Application VIOTR
[10] = CYPSS, read-out: Visual Growth Reduction (%) 14 Days After Application CYPSS
[11] = DIGSA: crabgrass (Digitaria sanguinalis), read-out: Visual Growth Reduction (%) 14 Days After Application DIGSA
[12] = ECHSS, read-out: Visual Growth Reduction (%) 14 Days After Application ECHSS
[13] = ORYSS (crop), read-out: Visual Growth Reduction (%) 14 Days After Application ORYSS
[14] = SETFA: giant foxtail (Setaria faberi), read-out: Visual Growth Reduction (%) 14 Days After Application SETFA
[15] = SORVU: grain sorghum (Sorghum vulgare), read-out: Visual Growth Reduction (%) 14 Days After Application SORVU
[16] = TRZSS (crop), read-out: Visual Growth Reduction (%) 14 Days After Application TRZSS
[17] = ZEAMX: maize, corn (Zea mays), read-out: Visual Growth Reduction (%) 14 Days After Application ZEAMX

Row | SMILES | pest or weed control at 70 g/ha [1, 3] [%] | pest or weed control at 140 g/ha [1, 3] [%] | pest or weed control at 70 g/ha [1, 4] [%] | pest or weed control at 140 g/ha [1, 4] [%] | pest or weed control at 70 g/ha [1, 5] [%] | pest or weed control at 140 g/ha [1, 5] [%] | pest or weed control at 70 g/ha [1, 6] [%] | pest or weed control at 140 g/ha [1, 6] [%] | pest or weed control at 70 g/ha [1, 7] [%] | pest or weed control at 140 g/ha [1, 7] [%] | pest or weed control at 70 g/ha [1, 8] [%] | pest or weed control at 140 g/ha [1, 8] [%] | pest or weed control at 70 g/ha [1, 9] [%] | pest or weed control at 140 g/ha [1, 9] [%] | pest or weed control at 70 g/ha [2, 10] [%] | pest or weed control at 140 g/ha [2, 10] [%] | pest or weed control at 70 g/ha [2, 11] [%] | pest or weed control at 140 g/ha [2, 11] [%] | pest or weed control at 70 g/ha [2, 12] [%] | pest or weed control at 140 g/ha [2, 12] [%] | further results
1 | COc1nc(C(F)(F)F)ccc1-c1cc(N)c(Cl)c(C(=O)O)n1 [Compound 65] | 0 to 29 | 0 to 29 | 85 to 94 | 85 to 94 | 0 to 29 | 0 to 29 | 0 to 29 | 0 to 29 | 0 to 29 | 0 to 29 | 45 to 59 | 45 to 59 | 0 to 29 | 0 to 29 | 0 to 29 | 0 to 29 | 0 to 29 | 0 to 29 | 0 to 29 | 0 to 29 | pest or weed control at 70 g/ha [2, 13]: 0 to 29%; pest or weed control at 140 g/ha [2, 13]: 0 to 29%; pest or weed control at 70 g/ha [2, 14]: 0 to 29%; pest or weed control at 140 g/ha [2, 14]: 0 to 29%; pest or weed control at 70 g/ha [2, 15]: 0 to 29%; pest or weed control at 140 g/ha [2, 15]: 0 to 29%; pest or weed control at 70 g/ha [2, 16]: 0 to 29%; pest or weed control at 140 g/ha [2, 16]: 0 to 29%; pest or weed control at 70 g/ha [2, 17]: 0 to 29%; pest or weed control at 140 g/ha [2, 17]: 0 to 29%; melting point: 169 to 171 °C
2 | Nc1c(F)c(-c2ccc(OC(F)F)nc2)nc(C(=O)O)c1Cl [Compound 66] | 75 to 84 | 85 to 94 | 0 to 29 | 0 to 29 | 0 to 29 | 0 to 29 | 85 to 94 | 95 to 100 | 95 to 100 | 95 to 100 | 85 to 94 | 85 to 94 | 60 to 74 | 60 to 74 | 45 to 59 | 45 to 59 | 60 to 74 | 60 to 74 | 75 to 84 | 75 to 84 | pest or weed control at 70 g/ha [2, 13]: 0 to 29%; pest or weed control at 140 g/ha [2, 13]: 0 to 29%; pest or weed control at 70 g/ha [2, 14]: 60 to 74%; pest or weed control at 140 g/ha [2, 14]: 60 to 74%; pest or weed control at 70 g/ha [2, 15]: 30 to 44%; pest or weed control at 140 g/ha [2, 15]: 75 to 84%; pest or weed control at 70 g/ha [2, 16]: 45 to 59%; pest or weed control at 140 g/ha [2, 16]: 60 to 74%; pest or weed control at 70 g/ha [2, 17]: 60 to 74%; pest or weed control at 140 g/ha [2, 17]: 60 to 74%; melting point: 134 to 136 °C
3 | COC(=O)c1nc(-c2ccc(Cl)c(F)c2C)c(F)c(N)c1Cl [Compound 68] | 95 to 100 | 95 to 100 | 95 to 100 | 95 to 100 | 85 to 94 | 95 to 100 | 95 to 100 | 95 to 100 | 0 to 29 | 0 to 29 | 95 to 100 | 95 to 100 | 30 to 44 | 30 to 44 | 0 to 29 | 0 to 29 | 0 to 29 | 0 to 29 | 0 to 29 | 0 to 29 | pest or weed control at 70 g/ha [2, 13]: 0 to 29%; pest or weed control at 140 g/ha [2, 13]: 0 to 29%; pest or weed control at 70 g/ha [2, 14]: 0 to 29%; pest or weed control at 140 g/ha [2, 14]: 0 to 29%; pest or weed control at 70 g/ha [2, 15]: 0 to 29%; pest or weed control at 140 g/ha [2, 15]: 0 to 29%; pest or weed control at 70 g/ha [2, 16]: 0 to 29%; pest or weed control at 140 g/ha [2, 16]: 0 to 29%; pest or weed control at 70 g/ha [2, 17]: 0 to 29%; pest or weed control at 140 g/ha [2, 17]: 0 to 29%; melting point: 154 to 156 °C

Source: patent publication US10765114B2, “4-amino-6-(pyridyl and 2-substitutedphenyl)-picolinates and 6-amino-2-(pyridyl and 2-substitutedphenyl)-pyrimidine-4-carboxylates and their use as herbicides” (Dow AgroSciences LLC, priority 2013, dated 2020)
